Source: PubChem BioAssay (NCI)
Values joined by “and” are separate entries in the source; they are usually repeats but may differ in a detail not shown here. Equal values may be shown once.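 These data come from cells grown in 96-well plates and exposed to compound for 48 hours at five concentrations. GI50 is the concentration that inhibits growth by half. TGI is the concentration that stops growth completely.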

Assays:
Assay in all cases: inhibition of tumour cell growth, NCI panel, 48 h
[1] = tested on: SW-620 colon
[2] = tested on: DMS 114 small cell lung
[3] = tested on: MCF7 breast
[4] = tested on: HOP-92 NSCLC
[5] = tested on: HOP-62 NSCLC
[6] = tested on: PC-3 prostate
[7] = tested on: HOP-18 NSCLC
[8] = tested on: DMS 273 small cell lung
[9] = tested on: SN12C renal
[10] = tested on: DU-145 prostate
[11] = tested on: 786-0 renal
[12] = tested on: SK-MEL-28 melanoma
[13] = tested on: MDA-MB-231 breast
[14] = tested on: U251 CNS
[15] = tested on: EKVX NSCLC
[16] = tested on: CCRF-CEM leukemia
[17] = tested on: SF-539 CNS
[18] = tested on: NCI-H226 lung
[19] = tested on: ACHN renal
[20] = tested on: A549 NSCLC
[21] = tested on: MALME-3M melanoma
[22] = tested on: KM12 colon
[23] = tested on: A498 renal
[24] = tested on: RPMI-8226 leukemia
[25] = tested on: SK-OV-3 ovarian
[26] = tested on: SNB-78 CNS
[27] = tested on: HCT-15 colon
[28] = tested on: UO-31 renal
[29] = tested on: SNB-19 CNS
[30] = tested on: MDA-MB-435
[31] = tested on: OVCAR-3 ovarian
[32] = tested on: HL-60(TB) leukemia
[33] = tested on: UACC-257 melanoma
[34] = tested on: MOLT-4 leukemia
[35] = tested on: COLO 205 colon
[36] = tested on: MDA-N
[37] = tested on: NCI-H23 lung
[38] = tested on: UACC-62 melanoma
[39] = tested on: OVCAR-4 ovarian
[40] = tested on: DLD-1 colon
[41] = tested on: HCC-2998 colon
[42] = tested on: M14 melanoma
[43] = tested on: SK-MEL-5 melanoma
[44] = tested on: KM20L2 colon
[45] = tested on: HCT-116 colon
[46] = tested on: IGROV1 ovarian
[47] = tested on: SF-295 CNS
[48] = tested on: CAKI-1 renal
[49] = tested on: K-562 leukemia
[50] = tested on: SK-MEL-2 melanoma
[51] = tested on: NCI-H460 lung
[52] = tested on: LOX IMVI melanoma
[53] = tested on: M19-MEL melanoma
[54] = tested on: HT29 colon
[55] = tested on: OVCAR-8 ovarian
[56] = tested on: XF 498 CNS
[57] = tested on: RXF 393 renal
[58] = tested on: SR leukemia
[59] = tested on: SF-268 CNS
[60] = tested on: LXFL 529 NSCLC
[61] = tested on: NCI-H522 lung
[62] = tested on: TK-10 renal
[63] = tested on: OVCAR-5 ovarian
[64] = tested on: SNB-75 CNS

## COc1cc(C2C3=C(COC3=O)Oc3cc4c(cc32)OCO4)cc(OC)c1OC (configuration not stated)
[1]
  TGI: > 31.6 µM
[2]
  TGI: 0.0384 µM and 0.0131 µM
[3]
  GI50: 0.0204 µM
[4]
  GI50: < 0.0117 µM
  TGI: 0.0882 µM and 0.0901 µM
[5]
  GI50: 0.02 µM
  TGI: 2.14 µM
[6]
  GI50: 0.0203 µM
  TGI: 0.313 µM
[7]
  GI50: > 100 µM
  TGI: > 100 µM
[8]
  TGI: 12.7 µM
[9]
  GI50: 0.037 µM
  TGI: 20.9 µM
[10]
  GI50: 0.022 µM
  TGI: 0.0875 µM and 0.0671 µM
[11]
  GI50: 0.0456 µM
[12]
  GI50: 11.1 µM
  TGI: > 31.6 µM
[13]
  TGI: 0.694 µM
[14]
  GI50: < 0.0213 µM
[15]
  GI50: 0.66 µM
[16]
  GI50: 0.0221 µM
  TGI: 0.338 µM and 0.0625 µM
[17]
  GI50: 0.0149 µM
  TGI: 0.0497 µM and 0.0427 µM
[18]
  TGI: 0.23 µM
[19]
  GI50: < 0.015 µM
  TGI: 16.4 µM
[20]
  GI50: < 0.0204 µM
  TGI: 14.2 µM
[21]
  GI50: 0.036 µM
[22]
  GI50: 0.0101 µM
  TGI: 0.144 µM
[23]
  GI50: 0.0363 µM
  TGI: 0.0186 µM
[24]
  GI50: < 0.0176 µM
  TGI: > 31.6 µM
[25]
  GI50: 0.032 µM
  TGI: 13.2 µM
[26]
  TGI: 50.6 µM
[27]
  GI50: 0.0354 µM
[28]
  GI50: < 0.0315 µM
  TGI: 16.1 µM
[29]
  GI50: 0.0474 µM
  TGI: 17.4 µM
[30]
  GI50: 0.0485 µM
  TGI: 0.0804 µM and 0.291 µM
[31]
  TGI: 0.0709 µM and 0.0883 µM
[32]
  TGI: 0.0502 µM and 0.0413 µM
[33]
  TGI: 2.86 µM
[34]
  TGI: 15.1 µM
[35]
  GI50: < 0.0138 µM
  TGI: 0.0929 µM and 0.0385 µM
[36]
  TGI: 0.0532 µM
[37]
  GI50: 0.028 µM
[38]
  TGI: > 31.6 µM
[39]
  TGI: 28.5 µM
[40]
  TGI: > 100 µM
[41]
  GI50: 0.0214 µM
  TGI: 0.062 µM
[42]
  GI50: < 0.0181 µM
  TGI: > 31.6 µM
[43]
  GI50: < 0.0162 µM
  TGI: 0.189 µM and 0.681 µM
[44]
  TGI: 0.0421 µM and 0.0283 µM
[45]
  TGI: 0.235 µM and 1.89 µM
[46]
  GI50: 0.0181 µM
  TGI: 13.3 µM
[47]
  TGI: 0.0575 µM
[48]
  TGI: 0.134 µM
[49]
  GI50: 0.032 µM
  TGI: 0.131 µM
[50]
  GI50: 0.262 µM
[51]
  GI50: < 0.0185 µM
[52]
  GI50: 0.00994 µM
  TGI: > 31.6 µM
[53]
  TGI: > 100 µM
[54]
  GI50: 0.0105 µM and 0.026 µM
  TGI: 0.0444 µM

## O=c1c2c([nH]c3cc4c(cc13)OCO4)-c1ccccc1C2
[1]
  TGI: > 100 µM
[55]
  TGI: > 100 µM
[56]
  TGI: 49.4 µM
[57]
  TGI: 34.2 µM
[4]
  TGI: 56.3 µM
[5]
  TGI: 52.4 µM
[7]
  TGI: 68.1 µM
[8]
  TGI: 42.3 µM
[9]
  TGI: 84.6 µM
[11]
  TGI: > 100 µM
[58]
  TGI: 56.1 µM
[12]
  TGI: 59.9 µM
[14]
  TGI: 35.6 µM
[15]
  TGI: > 100 µM
[16]
  TGI: 71.4 µM
[17]
  TGI: 34.7 µM
[18]
  TGI: 86.7 µM
[19]
  TGI: 53.8 µM
[20]
  TGI: > 100 µM
[21]
  TGI: 62.9 µM
[22]
  TGI: 42.8 µM
[24]
  TGI: 48.2 µM
[25]
  TGI: > 100 µM
[26]
  TGI: > 100 µM
[27]
  TGI: > 100 µM
[28]
  TGI: 86.1 µM
[29]
  TGI: > 100 µM
[59]
  TGI: > 100 µM
[31]
  TGI: 51.6 µM
[32]
  TGI: 70.1 µM
[60]
  TGI: 63.7 µM
[34]
  TGI: 82 µM
[35]
  TGI: 31.5 µM
[37]
  TGI: 67.5 µM
[38]
  TGI: 32.3 µM
[39]
  TGI: > 100 µM
[40]
  TGI: 58.7 µM
[41]
  TGI: 84.1 µM
[42]
  TGI: 46.5 µM
[43]
  TGI: 29.6 µM
[61]
  TGI: 55.5 µM
[44]
  TGI: 36.7 µM
[45]
  TGI: 37.4 µM
[46]
  TGI: 49.7 µM
[47]
  TGI: 84.8 µM
[48]
  TGI: > 100 µM
[49]
  TGI: > 100 µM
[50]
  TGI: 28.9 µM
[62]
  TGI: 78.5 µM
[51]
  TGI: 63.9 µM
[52]
  TGI: 31.7 µM
[54]
  TGI: 33 µM

## COS(=O)(=O)OCCC(NC(=O)OCc1ccccc1)C(=O)OCc1ccccc1 (configuration not stated)
[1]
  TGI: > 100 µM
[55]
  TGI: > 100 µM
[2]
  TGI: > 100 µM
[4]
  TGI: > 100 µM
[5]
  TGI: > 100 µM
[7]
  TGI: > 100 µM
[8]
  TGI: > 100 µM
[9]
  TGI: > 100 µM
[11]
  TGI: > 100 µM
[12]
  TGI: > 100 µM
[14]
  TGI: > 100 µM
[15]
  TGI: > 100 µM
[16]
  TGI: > 100 µM
[17]
  TGI: > 100 µM
[18]
  TGI: > 100 µM
[19]
  TGI: > 100 µM
[20]
  TGI: > 100 µM
[21]
  TGI: > 100 µM
[22]
  TGI: > 100 µM
[23]
  TGI: > 100 µM
[24]
  TGI: > 100 µM
[25]
  TGI: > 100 µM
[26]
  TGI: > 100 µM
[27]
  TGI: > 100 µM
[28]
  TGI: > 100 µM
[29]
  TGI: > 100 µM
[59]
  TGI: > 100 µM
[31]
  TGI: > 100 µM
[32]
  TGI: > 100 µM
[33]
  TGI: > 100 µM
[60]
  TGI: > 100 µM
[34]
  TGI: > 100 µM
[35]
  TGI: > 100 µM
[37]
  TGI: > 100 µM
[38]
  TGI: > 100 µM
[39]
  TGI: > 100 µM
[63]
  TGI: > 100 µM
[40]
  TGI: > 100 µM
[41]
  TGI: > 100 µM
[42]
  TGI: > 100 µM
[43]
  TGI: > 100 µM
[61]
  TGI: > 100 µM
[44]
  TGI: > 100 µM
[64]
  TGI: > 100 µM
[45]
  TGI: > 100 µM
[46]
  TGI: > 100 µM
[47]
  TGI: > 100 µM
[48]
  TGI: > 100 µM
[49]
  TGI: > 100 µM
[50]
  TGI: > 100 µM
[62]
  TGI: > 100 µM
[51]
  TGI: > 100 µM
[52]
  TGI: > 100 µM
[53]
  TGI: > 100 µM
[54]
  TGI: > 100 µM

## CC(C)(C)c1ccc2c(c1)C(O)(c1ccccc1)c1cc(C(C)(C)C)ccc1C2(O)C(F)(F)F (configuration not stated)
[1]
  TGI: 4.23 µM
[55]
  TGI: 4.29 µM
[2]
  TGI: 5.21 µM
[56]
  TGI: 2.9 µM
[57]
  TGI: 3.87 µM
[4]
  TGI: 3.79 µM
[5]
  TGI: 2.94 µM
[7]
  TGI: 5.06 µM
[8]
  TGI: 3.55 µM
[9]
  TGI: 3.14 µM
[11]
  TGI: 3.77 µM
[58]
  TGI: 5.12 µM
[12]
  TGI: 4.54 µM
[14]
  TGI: 3.31 µM
[15]
  TGI: 9.85 µM
[16]
  TGI: 5.57 µM
[17]
  TGI: 3.41 µM
[18]
  TGI: 2.35 µM
[19]
  TGI: 5.77 µM
[20]
  TGI: 3.7 µM
[21]
  TGI: 5.56 µM
[22]
  TGI: 4.87 µM
[23]
  TGI: 3.25 µM
[25]
  TGI: 8.57 µM
[27]
  TGI: 3.83 µM
[28]
  TGI: 4.58 µM
[29]
  TGI: 6.32 µM
[59]
  TGI: 4.48 µM
[31]
  TGI: 4.29 µM
[32]
  TGI: 5.15 µM
[33]
  TGI: 4.85 µM
[60]
  TGI: 4.39 µM
[34]
  TGI: 4.71 µM
[35]
  TGI: 3.27 µM
[37]
  TGI: 4.39 µM
[38]
  TGI: 3.66 µM
[39]
  TGI: 3.7 µM
[63]
  TGI: 3.05 µM
[40]
  TGI: 4.15 µM
[41]
  TGI: 3.66 µM
[42]
  TGI: 3.59 µM
[61]
  TGI: 3.45 µM
[44]
  TGI: 3.05 µM
[64]
  TGI: 5.48 µM
[45]
  TGI: 3.37 µM
[46]
  TGI: 4.94 µM
[47]
  TGI: 2.88 µM
[48]
  TGI: 4.73 µM
[49]
  TGI: 5.62 µM
[50]
  TGI: 3.63 µM
[62]
  TGI: 11.4 µM
[51]
  TGI: 3.5 µM
[52]
  TGI: 3.32 µM
[53]
  TGI: 3.7 µM
[54]
  TGI: 2.99 µM
